Source: patent publication US10201583B2, “Antioxidant dietary supplement and related method” (priority 2012, dated 2019)

Assays:
[1] = tested on: Antioxidant Response Element (ARE); experiment: ARE luciferase reporter assay in stably transfected HepG2 cells; type: cell-based, human; conditions: individual ingredient at the noted concentration, 48 h, control sulforaphane 10 μM
Experimental: The formulation including the blend of turmeric, quercetin and rosemary (TQR Blend, also referred to herein as Blend A) was tested to evaluate the ARE of the blend. In particular, the three individual ingredients, turmeric, quercetin and rosemary were tested by themselves and in combination as a blend. In the testing, a conventional assay for determining ARE was utilized. Generally, the assay included the human hepatocyte cell line HepG2 obtained from ATCC of Manassas, Va. that was stably transfected with a vector. The vector contained four repeats of the ARE DNA sequence ([…] ID NO: 1)) upstream of a minimal promoter using the firefly luciferase gene as a reporter. These cells were then treated with the individual ingredients turmeric, quercetin and rosemary, and the TQR Blend in varying concentrations for 48 hours in this and the other noted examples below. The human hepatocytes were lysed, the luciferase substrate, purchased from Biotium of Hayward, Calif., added, and the relative luminescence values were obtained for all samples. The results are shown as a % Response vs. Control. The control substance was sulforaphane at 10 μM.

[2] = tested on: HMOX-1 in bovine aortic endothelial cells; conditions: Motterlini et al. 2000; cited from earlier work

| SMILES | % Response vs. Control in ARE assay ([1]; TQR Blend 50 μg/ml at 1:3:5) | % Response vs. Control in ARE assay ([1]; TQR Blend 60 μg/ml at 1:3:5) | % Response vs. Control in ARE assay ([1]; TQR Blend 70 μg/ml at 1:3:5) | % Response vs. Control in ARE assay ([1]; TQR Blend 80 μg/ml at 1:3:5) | induction of HMOX-1 in endothelial cells [2] |
| --- | --- | --- | --- | --- | --- |
| O=c1c(O)c(-c2ccc(O)c(O)c2)oc2cc(O)cc(O)c12 [quercetin] | about 50% | about 75% | about 80% | about 90% |  |
| COc1cc(/C=C/C(=O)CC(=O)/C=C/c2ccc(O)c(OC)c2)ccc1O [curcumin] |  |  |  |  | potent inducer of HMOX-1 |
